# Reference: a melting point compilation (Tetko et al.; mined from patent text by program, amines drawn as free bases though some values may be those of a salt)
row,Structure (SMILES),melting point
1,CCCN(CCC)C1Cc2cc3c(cc2C1)C(=O)NC3 (stereo not drawn),206 to 208 °C
2,CN1C(=O)CN(C(=O)CCl)C(c2ccccc2)c2cc(Cl)ccc21 (stereo not drawn),197 to 200 °C
3,Nc1nc2ccccc2c2c1ncn2CCCCCCNC(=O)c1ccccc1,146 to 155 °C
4,Cn1cnc(S(=O)(=O)N2CCS(=O)(=O)CC2)c1,179 to 180 °C
5,Cc1nc2c3c(ccn2c1C)[C@@H](OCCS(C)=O)[C@H](O)[C@@H](c1ccccc1)N3 (stereo partly drawn),105 to 106 °C

# Continued, values first:
row,melting point,Structure (SMILES)
1,178 °C,CN(C)C(=O)CCC(=O)NC1CCC(CCN2CCN(c3nccc4c3OCC4)CC2)CC1 (stereo not drawn)
2,75 to 77 °C,COC(=O)C[C@H](O)CC(=O)CCc1c(-c2ccc(F)cc2)c(-c2ccccc2)c(C(=O)Nc2ccccc2)n1C(C)C
3,79 to 80 °C,CCC1(CCCCCl)C(=O)Nc2ccc(C)cc21 (stereo not drawn)
